Experimental data as given in patent US12630544B2, “Compound, α-synuclein aggregate binder, and use thereof” (NATIONAL INSTITUTES FOR QUANTUM SCIENCE AND TECHNOLOGY, priority 2020, dated 2026).

Key:
α-synuclein aggregates [1] = target: T1, α-synuclein aggregates (Homo sapiens, UniProt P37840); assay: In vitro fluorescence microscope measurement, amygdala sections of DLB patient brain; set-up: α-synuclein aggregates formed in the brain of the DLB patient; from tissue; host or cells: post-mortem human brain: amygdala of DLB patient (sections or homogenate); cerebellum of MSA patient; details: 30 μM test compound
Description: (§1) Postmortem human brains were obtained in autopsies carried out with respect to a patient with dementia with Lewy bodies (DLB) and a patient with Alzheimer's disease (AD). In a cryostat (HM560, Carl Zeiss), frozen tissue from the DLB patient was sliced into sections each having a thickness of 20 μm. Brain tissue from the AD patient was fixed in 10% neutral buffered formalin, embedded in a paraffin block, and sliced into sections each having a thickness of 6 μm.
Postfixed fresh frozen sections of amygdala tissue obtained from the brain of the DLB patient and deparaffinized sections of formalin-fixed paraffin-embedded middle frontal gyrus tissue obtained from the brain of the AD patient were used. Each brain section and a 30 μM test compound were incubated in a 50% ethanol solution at room temperature for 30 minutes. Thereafter, the section was washed with a 50% ethanol solution for 5 minutes and with ultrapure water for 3 minutes. This washing was carried out twice. After the section was mounted in a mounting medium (VECTASHIELD H-1000, Vector Laboratories), an image of a lesion-enriched area on the section was obtained with use of a fluorescence microscope (DM4000, Leica, excitation wavelength: 391 nm to 437 nm). In FIG. 1, each arrowhead indicates fluorescence from the compound binding to α-synuclein aggregates in the brain of the DLB patient, each arrow indicates fluorescence from the compound binding to amyloid-β aggregates in the brain of the AD patient, and an asterisk indicates fluorescence from the compound binding to tau aggregates in the brain of the AD patient. The fluorescence intensities of lesion-enriched areas and lesion-free areas (background) were quantified with use of analysis software (Image J). Note that SPAL-T-05 and SPAL-T-06 were each used as the test compound. Note also that BF-227 (2-(2-[2-dimethylaminothiazol-5-yl]ethenyl)-6-(2-[fluoro]ethoxy)benzoxazole (catalog No.: NP039-0)) and PBB3 (2-((1E,3E)-4-(6-(methylamino)pyridin-3-yl)buta-1,3-dienyl)benzo[d]thiazol-6-ol) (catalog No.: NP039-0), each available from NARD INSTITUTE, LTD., were each used as a control compound.

[2] = tested on: tau aggregates or amyloid-β aggregates; assay: In vitro fluorescence microscope measurement, middle frontal gyrus sections of AD patient brain; set-up: species or system human; details: 30 μM compound
Description: as §1
Postfixed fresh frozen sections of amygdala tissue obtained from the brain of the DLB patient and deparaffinized sections of formalin-fixed paraffin-embedded middle frontal gyrus tissue obtained from the brain of the AD patient were used. […] After the section was mounted in a mounting medium (VECTASHIELD H-1000, Vector Laboratories), an image of a lesion-enriched area on the section was obtained with use of a fluorescence microscope (DM4000, Leica, excitation wavelength: 391 nm to 437 nm). In FIG. 1, each arrowhead indicates fluorescence from the compound binding to α-synuclein aggregates in the brain of the DLB patient, each arrow indicates fluorescence from the compound binding to amyloid-β aggregates in the brain of the AD patient, and an asterisk indicates fluorescence from the compound binding to tau aggregates in the brain of the AD patient. […]

α-synuclein lesion = target: T2, α-synuclein lesion (Mus musculus, UniProt O55042); assay: In vivo two-photon laser scanning fluorescence microscopy of α-synuclein fibril-inoculated model mouse; details: 50 μl DMSO solution containing 0.1% compound, i.p.; excitation 900 nm
T2 construct: from tissue; host or cells: brain of C57/BL/6 mouse inoculated in the striatum with recombinant (E. coli) mouse α-synuclein fibrils; sections or living animal
Protocol: First, mouse α-synuclein was expressed in and extracted from E. coli as a recombinant protein, and then incubated in vitro to form insoluble α-synuclein aggregates. The α-synuclein aggregates were then inoculated into the striatum of a mouse. […] Note that the inoculation of the α-synuclein aggregates into the striatum of the mouse was carried out in the following manner. First, hair on the head of a 9-week-old C57/BL/6 male mouse which had been anesthetized with 1.5% (v/v) isoflurane was removed, and the scalp was disinfected with isodine, followed by application of xylocaine and incision in the scalp to expose the skull. Then, a hole was drilled in the skull at a position of 0.05 mm posterior to the bregma and 2 mm lateral to the midline, and 3 μl of an α-synuclein fibril solution (mouse α-synuclein fibril (4 mg/ml) in saline) was injected into a position […] ventral to the brain surface with use of a glass pipette. The scalp was then returned and sutured.
A model mouse was anesthetized with 1.5% (v/v) isoflurane 6 or more weeks after inoculation of an α-synuclein fibril solution. Then, a cranial window was placed on the model mouse in accordance with the Seylaz-Tomita method (Tomita et al. J Cereb Blood Flow Metab 25, 858-67, 2005). Two or more weeks after the placement of the cranial window, the mouse was anesthetized with 1.5% (v/v) isoflurane, and then 50 μl of a DMSO solution containing 0.1% BF-227, PBB3, SPAL-T-05, or SPAL-T-06 was intraperitoneally administered to the mouse. Thirty minutes after the administration, the mouse was fixed under a two-photon laser fluorescence microscope, 100 μl of physiological saline containing 5 mM Sulforhodamine 101 was intraperitoneally administered to the mouse, and then intravital two-photon fluorescence imaging was carried out at an excitation wavelength of 900 nm. Detection wavelengths for BF-227, PBB3, SPAL-T-05, and SPAL-T-06 were set at 500 nm to 550 nm, and a detection wavelength for Sulforhodamine 101 was set at 573 nm to 648 nm. In FIG. 4, each arrowhead indicates a blood vessel, and each arrow indicates fluorescence from the compound binding to an α-synuclein lesion.

α-synuclein aggregates [3] = target: T1, α-synuclein aggregates; details: background statement, cited from earlier work

Row | binding selectivity: α-synuclein aggregates (DLB brain) versus tau aggregates or amyloid-β aggregates (AD brain) (α-synuclein aggregates [1]; fluorescence of lesion-enriched vs lesion-free areas) | binding to aggregates in the brain of the AD patient (fluorescence) [2] | detection of / binding to α-synuclein lesions in living mouse brain (two-photon fluorescence) (α-synuclein lesion) | SMILES | binding to α-synuclein aggregates formed in the brain of the DLB patient (fluorescence) (α-synuclein aggregates [1]; 50% ethanol, room temperature, 30 minutes, amygdala sections) | binding selectivity with respect to the α-synuclein aggregates (α-synuclein aggregates [3]; binds to amyloid-β aggregates) | binding affinity with respect to the α-synuclein aggregates (α-synuclein aggregates [3])
1 | low binding selectivity | mainly bound to the amyloid-β aggregates | no α-synuclein lesion was detected | CN(C)c1ncc(C=Cc2nc3ccc(OCCF)cc3o2)s1 [BF-227, 2-(2-[2-dimethylaminothiazol-5-yl]ethenyl)-6-(2-[fluoro]ethoxy)benzoxazole, reference compound] | weaker than that of each of SPAL-T-06 and SPAL-T-05 | – | –
2 | – | – | no α-synuclein lesion was detected | CNc1ccc(/C=C/C=C/c2nc3ccc(O)cc3s2)cn1 [PBB3, 2-((1E,3E)-4-(6-(methylamino)pyridin-3-yl)buta-1,3-dienyl)benzo[d]thiazol-6-ol, reference compound] | – | – | –
3 | – | – | – | CN(C)c1ncc(C=Cc2nc3ccc(OCCF)cc3o2)s1 [[^11C]BF-227] | – | low binding selectivity | insufficient binding affinity
